Assay results: paper PMC11919252 (eLife, 2025)
Entries after “also recorded” stand apart in the source; their conditions may differ. Where a name gives a salt, the structure may show the parent alone.

Columns and labels:
[1] = system: WT and Tac1::Calca DKO mice; conditions: 0.6% acetic acid, intraperitoneal, 10 μl/g; 15 min from 5 min after injection; WT n=9, DKO n=7
Procedure: Mice were habituated on a plexiglass stand for 1 hr. 0.6% of acetic acid was injected intraperitoneally at a dose of 10 μl/g weight of the animal. Mice were videotaped for 20 min. The number of writhes was quantified post-hoc by a blinded observer during a 15-min interval between 5 and 20 min after injection.

[2] = system: WT and Tac1::Calca DKO mice; experiment: Conditioned taste aversion; format: in vivo, mouse; conditions: LiCl 200 mg/kg; saccharin 15 mM; WT n=7, DKO n=6
Procedure: Mice were single-housed and habituated for 3 days to drink from two glass bottles with stainless-steel ball-bearing spouts. Mice then received 3 days of training, where they were water-deprived for 22 hr followed by 30 min exposure to a single water-containing bottle, then 90 min exposure to both bottles. On the conditioning day, after 22 hr of water deprivation, mice were exposed to a single bottle containing saccharin water (15 mM) for 45 min. Mice were then injected with lithium chloride (200 mg/kg) or PBS, and then given ordinary water for 75 min. The animals were then water deprived for a further 22 hr. On the test day, mice were simultaneously exposed to a bottle containing water and a bottle containing saccharin for 45 min. The volume of each solution consumed was measured by weighing the bottles before and after. To calculate the saccharin preference index of each animal, the volume of saccharin consumed was divided by the total of fluid consumed, with a value less than 0.5 indicating the development of an aversion to saccharin.

[3] = system: CGRP receptor (Calcrl and Ramp1) in CGRP-sniffer HEK293 cells co-cultured with DRG neurons; experiment: Co-culture of DRG neurons and CGRP-sniffer cells (CGRP release); format: cell-based, mouse
[4] = system: hindpaw of WT and DKO mice; experiment: Plasma extravasation, Evans blue assay; format: in vivo, mouse; conditions: for Paw swelling and plasma extravasation (images): injected (left) compared to uninjected (right) paw, WT and DKO mice
Procedure: (§1) Mice were anesthetized using isoflurane. 200 μl of Evans Blue dye was injected into the mouse’s tail vein. 15 mins later, one hindpaw was injected with an algogen. After a further 30 min, the volume of each paw was measured by displacement using a plethysmometer (Ugo Basile). Both paws were then cut at the ankle and placed in tubes in the oven at 55 °C for 24 hr to dry. 1 ml of formamide was then added to each paw and incubated for 4-6 days at 55 °C to extract the dye from the paw tissue. 50 μl samples of dye-infused formamide from each paw were then dispensed to a 96-well plate in duplicate, along with a range of Evans blue dilutions in formamide to generate a standard curve. The optical density of each sample was then measured using a plate-reader, and the concentration of Evans Blue per paw sample interpolated from the standard curve to generate an index of extravasation in that paw.

[5] = system: hindpaw of WT and DKO mice; experiment: Hindpaw swelling (edema), plethysmometer; format: in vivo, mouse; conditions: for Swelling of the hindpaw, DKO versus WT: observation after injection of CFA, PGE2, AITC or capsaicin
Procedure: as §1

[6] = system: Substance P receptor (NKR1) in Substance P-sniffer HEK293 cells co-cultured with DRG neurons; experiment: Co-culture of DRG neurons and Substance P-sniffer cells (Substance P release); format: cell-based, mouse; conditions: capsaicin 10 μM
[7] = system: WT and Tac1::Calca DKO mice; experiment: Capsaicin-evoked licking; format: in vivo, mouse; conditions: 0.3% capsaicin, 20 µl intraplantar, 5 min
Procedure: (§2) 0.3% capsaicin in 80% saline / 10% Tween-80 /10% ethanol or 1% AITC in saline was injected into the plantar surface of the hind paw. The injected volume for both was 20 µl. Mice were video-taped for 5 min. A blinded observer scored the amount of time in seconds the mouse spent licking the injected paw in a 5-min time period.

[8] = system: dorsal horn of WT and DKO mice; experiment: Capsaicin-evoked dorsal horn Fos staining; format: in vivo, mouse; conditions: capsaicin 0.3% hindpaw; WT n=5, DKO n=4
Procedure: […]. After 1 week, mice were habituated then the stimulation was performed. For capsaicin-evoked dorsal horn Fos, capsaicin (0.3%) was injected into the right hindpaw of mice in chambers on a plexiglass stand. For Fos elicited by dynamic allodynia stimulation, mice that received a spared nerve injury procedure 3 weeks prior were stimulated with a paint brush while housed on a wire mesh stand (3x10 min stimulation period, with 1-min rest every 10 min). Note that for SNI experiments, the CTB was injected into the contralateral paw, because severing two branches of the sciatic nerve would have prevented efficient CTB transit in the ipsilateral paw. The mice were perfused as above and spinal cords were harvested 75–120 min after stimulation. The sections were incubated in a blocking buffer (5% goat serum; 0.1% Triton X-100; PBS) for 3 hr at room temperature on a shaker. The sections were incubated in 1:1000 rabbit anti Fos primary antibody (Cell Signaling Technology, Phospho-c-Fos (Ser32) (D82C12) XP Rabbit mAb, #5348) at room temperature overnight. […] This ensured Fos activity was measured only in those sections strongly innervated by the hindpaw. The number of Fos-positive nuclei in the dorsal horn were quantified in ImageJ/FIJI software (National Institute of Health) by a blinded observer using a semi-automated procedure. […]

[9] = system: WT and Tac1::Calca DKO mice; experiment: Inflammatory mechanical hypersensitivity (von Frey); format: in vivo, mouse; conditions: PGE2 20 μl, 500 nM intraplantar; up to 120 min; WT n=6, DKO n=6
Procedure: Punctate mechanical sensitivity was measured using the up-down method of Chaplan to obtain a 50% withdrawal threshold ([Chaplan et al., 1994]). Mice were habituated on a mesh wire stand for 1 hr. A 0.16 g Von Frey hair was applied to the plantar region of the paw for 2 s. A response was recorded when the mouse swiftly lifted its paw in response to the stimulus. […] To calculate the 50% withdrawal threshold, five responses surrounding the 50% threshold were obtained after the first change in response. The pattern of responses was used to calculate the 50% threshold = (10[χ+κδ]/10,000), where χ is the log of the final von Frey filament used, κ=tabular value for the pattern of responses and δ the mean difference between filaments used in log units. The log of the 50% threshold was used to calculate summary and test statistics.
(§3) CFA and PGE2 was purchased from Sigma. 20 μl of CFA was injected into the heel of the hind paw. PGE2 (20 μl, 500 nM) was injected into the plantar surface of the hindpaw, and behavior was assessed over the same time-frame that produces in vivo sensitization of nociceptor responses (up to 120 min). Inflammation-induced hypersensitivity was measured using the Hargreaves and the von Frey, as described above.

[10] = system: WT and Tac1::Calca DKO mice; experiment: Inflammatory heat hypersensitivity (Hargreaves); format: in vivo, mouse; conditions: PGE2 20 μl, 500 nM intraplantar; up to 120 min; WT n=10, DKO n=10
Procedure: The radiant heat stimulus was aimed for the centre of the plantar region of the mouse’s hind paw. The active intensity of the low stimulus was 40 intensity units, and of the high stimulus 55. The response latency was recorded for five trials with 10 min breaks in between each trial.
as §3

[11] = system: WT and Tac1::Calca DKO mice; experiment: AITC-evoked licking; format: in vivo, mouse; conditions: 1% AITC in saline, 20 µl intraplantar; 5 min; WT n=12, DKO n=12
Procedure: as §2

[12] = system: WT and Tac1::Calca DKO mice; experiment: Chloroquine-induced itch; format: in vivo, mouse; conditions: chloroquine 20 μl of 25 μM intradermal, nape of neck; 15 min; WT n=8, DKO n=11
Procedure: Hair from the nape of the mouse’s neck was removed 2–3 days prior to behavioral experiments using VEET hair removal cream and the area thoroughly washed and moisturizing cream applied. Mice were habituated to transparent acrylic chambers (10cm x 10cm x 13 cm) 30 min prior to injection. Post habituation, a blinded investigator injected 20 μl of 25 μM Chloroquine diphosphate salt (Sigma-Aldrich: C6628) solution in 0.9% saline intradermally into the nape of the neck using a 31 G insulin syringe. Videos were quantified by a separate blinded investigator with a scratching bout counted each time the mouse attended to the injected area with the hind paw after the paw was removed from the floor or mouth.

In the case of `CC(=O)O` [acetic acid], the Writhing behavior [1] is reported as “comparable writhing behavior in both WT and DKO mice”.

For `[Cl-].[Li+]` [LiCl, lithium chloride], the “Conditioned taste aversion to saccharin” value [2] was “pronounced aversion to the usually-preferred saccharin; also recorded: strong and indistinguishable conditioned taste aversion in both WT and DKO mice”.

`CC(C)C[C@H](NC(=O)CNC(=O)[C@H](C)NC(=O)[C@H](CC(C)C)NC(=O)[C@H](CCCNC(=N)N)NC(=O)[C@H](Cc1c[nH]cn1)NC(=O)[C@@H](NC(=O)[C@@H](NC(=O)[C@@H]1CSSC[C@H](NC(=O)[C@@H](N)CO)C(=O)N[C@@H](CC(N)=O)C(=O)N[C@@H]([C@@H](C)O)C(=O)N[C@@H](C)C(=O)N[C@@H]([C@@H](C)O)C(=O)N1)C(C)C)[C@@H](C)O)C(=O)N[C@@H](CC(C)C)C(=O)N[C@@H](CO)C(=O)N[C@@H](CCCNC(=N)N)C(=O)N[C@@H](CO)C(=O)NCC(=O)NCC(=O)N[C@H](C(=O)N[C@H](C(=O)N[C@@H](CCCCN)C(=O)N[C@@H](CC(=O)O)C(=O)N[C@@H](CC(N)=O)C(=O)N[C@@H](Cc1ccccc1)C(=O)N[C@H](C(=O)N1CCC[C@H]1C(=O)N[C@H](C(=O)N[C@@H](CC(N)=O)C(=O)N[C@H](C(=O)NCC(=O)N[C@@H](CO)C(=O)N[C@@H](CCC(=O)O)C(=O)N[C@@H](C)C(=O)N[C@@H](Cc1ccccc1)C(N)=O)C(C)C)[C@@H](C)O)C(C)C)C(C)C)C(C)C` [CGRPα] was tested, and the “CGRP-sniffer activation by exogenous CGRPα” value ([3]; CGRPα saturating concentration 100–1000 nM, co-culture with WT and DKO DRG, n=18 wells per genotype) was “activates CGRP-sniffers in both conditions”.

With `COc1cc(CNC(=O)CCCC/C=C/C(C)C)ccc1O` [capsaicin] the Plasma extravasation ([4]; capsaicin injection, Evans blue optical density normalized to uninjected paw, WT n=9, DKO n=7) was “plasma extravasation was intact in DKO mice”, the “Paw swelling and plasma extravasation (images)” value [4] was “both WT and DKO mice show paw swelling and plasma extravasation” and the “Paw swelling by volume, WT versus DKO” value ([5]; capsaicin injection, 30 min, normalized to uninjected paw, WT n=9, DKO n=7) was “no appreciable differences in capsaicin-induced swelling between WT and DKO mice”. The “Swelling of the hindpaw, DKO versus WT” value [5] was “provoked swelling of the hindpaw of DKO mice to a similar extent as WT mice”, the “Substance P-sniffer GCaMP response evoked by capsaicin” value ([6]; DKO DRG neurons) was “no Substance P-sniffer cell responses” and the “Substance P-sniffer GCaMP6s fluorescence” value ([6]; WT versus DKO DRG co-culture, n=12 wells from 2 mice per genotype) was “increase in Substance P-sniffer GCaMP6s fluorescence when cultured with DRGs from WT, but not DKO, mice”. For the same compound, the “Substance P-sniffer GCaMP response evoked by capsaicin” value ([6]; control (WT) DRG neurons) was “robust GCaMP responses”, the “CGRP-sniffer activity evoked by DKO neurons” value ([3]; capsaicin application, DKO DRG neurons) was “markedly reduced activity” and the “CGRP-sniffer calcium response evoked by capsaicin” value ([3]; capsaicin application, WT DRG neurons) was “strong increases in calcium”. The “CGRP-sniffer GCaMP6s fluorescence” value ([3]; capsaicin, WT versus DKO DRG co-culture, n=18 wells from 3 mice per genotype) was “increase in CGRP-sniffer GCaMP6s fluorescence when cultured with DRGs from WT, but not DKO, mice”, the “Licking responses after capsaicin” value ([7]; WT n=9, DKO n=8) was “evoked coping-like licking responses in both genotypes” and the “Licking, difference WT versus DKO after capsaicin” value ([7]; unpaired t-test) was “differences did not reach statistical significance”. For the same compound, the “Capsaicin-evoked dorsal horn Fos expression” value [8] was “No differences in dorsal horn Fos expression were observed”.

For `CCCCC[C@H](O)/C=C/[C@H]1[C@H](O)CC(=O)[C@@H]1C/C=C\CCCC(=O)O` [PGE2, Prostaglandin E2], the “Swelling of the hindpaw, DKO versus WT” value [5] was “provoked swelling of the hindpaw of DKO mice to a similar extent as WT mice”, the “Mechanical hypersensitivity, von Frey” value [9] was “short-lasting heat and mechanical hypersensitivity to a similar extent in both WT and DKO mice” and the “Heat hypersensitivity, Hargreaves” value [10] was “short-lasting heat and mechanical hypersensitivity to a similar extent in both WT and DKO mice”.

With `C=CCN=C=S` [AITC, allyl isothiocyanate] the “Paw swelling and plasma extravasation (images)” value [4] was “both WT and DKO mice show paw swelling and plasma extravasation”, the “Licking behavior after AITC” value [11] was “evoked similar licking behavior to capsaicin that was unaffected by peptide deletion” and the “Swelling of the hindpaw, DKO versus WT” value [5] was “provoked swelling of the hindpaw of DKO mice to a similar extent as WT mice”.

With `CCN(CC)CCCC(C)Nc1ccnc2cc(Cl)ccc12` (centres unmarked) [chloroquine, Chloroquine diphosphate salt] the Scratching [12] was “DKO mice scratched robustly”.
